Values quoted from earlier work, collected in patent publication US20090081206A1, “METHOD AND PHARMACEUTICAL COMPOSITION FOR INHIBITING PREMATURE RAPTURE OF FETAL MEMBRANES, RIPENING OF UTERINE CERVIX AND PRETERM LABOR IN MAMMALS” (priority 1997, published 2009).
Like-named read-outs stand apart in the source and are kept apart here.

Tests used:
[1] = women with cervical Bishop score of 4-5
[2] = in vivo
[3] = intravaginal tablets
[4] = not given; remark: listed apart in the source
[5] = for need for additional oxytocin: compared with 100% in placebo
[6] = 3-mg intravaginal pessaries, mixed group of multigravidae and primigravidae
[7] = patches, only 13 cases studied
[8] = severe pregnancy-induced hypertension
[9] = after single 3-mg suppository alone

plasma half-life [2] [min] | SMILES | vaginal birth within 24 hours [1] | antidiuretic and pressor activity relative to vasopressin [%] | patients induced successfully (achieving active labor) ([3]; multigravidae, 1-mg group) [%] | patients induced successfully (achieving active labor) ([3]; multigravidae, 5-mg group) [%] | patients induced successfully (achieving active labor) ([3]; primigravidae, 1-mg group) [%] | patients induced successfully (achieving active labor) ([3]; primigravidae, 5-mg group) [%] | mean time to labor [4, 9] [h] | patients in whom labor was achieved [4, 9] [%] | additional oxytocin augmentation needed ([4]; multifarious women) [%] | additional oxytocin augmentation needed ([4]; nulliparous women) [%] | established labor and delivered their infants without oxytocin augmentation ([5]; multigravidae, 2.5-mg vaginal suppositories) [%] | need for additional oxytocin ([5]; multigravidae) [%] | established labor and delivered their infants without oxytocin augmentation ([5]; primigravidae, 5-mg vaginal suppositories) [%] | need for additional oxytocin ([5]; primigravidae) [%] | treatment-to-delivery interval ([5]; shorter compared with controls) [h] | success rate for induced labor [6] [%] | suppression of preterm labor, safety and tolerability [7] | reduction of capillary wedge pressure [8] [%] | reduction of mean arterial blood pressure [8] [%]
5 to 17 | CC[C@H](C)[C@@H]1NC(=O)[C@H](Cc2ccc(O)cc2)NC(=O)[C@@H](N)CSSC[C@@H](C(=O)N2CCC[C@H]2C(=O)N[C@@H](CC(C)C)C(=O)NCC(N)=O)NC(=O)[C@H](CC(N)=O)NC(=O)[C@H](CCC(N)=O)NC1=O [oxytocin] | 8 of 19 | 1 |  |  |  |  |  |  |  |  |  |  |  |  |  |  |  |  | 
 | CCCCC[C@H](O)/C=C/[C@H]1[C@H](O)CC(=O)[C@@H]1C/C=C\CCCC(=O)O [PGE2, prostaglandin E2] | 17 of 19 |  | 39.1 | 62.2 | 29.6 | 62.9 | 1.5 | 98 | 14 | 71 | 81 | 19.1 | 63 | 37.5 | 7.6 to 11.6 | 55 |  |  | 
 | O=[N+]([O-])OCC(CO[N+](=O)[O-])O[N+](=O)[O-] [GTN, glycerol trinitrate] |  |  |  |  |  |  |  |  |  |  |  |  |  |  |  |  | safe, well-tolerated and non-invasive method of suppressing preterm labor | 30 | 25
